# Data reported in patent US20210371455A1, “METHODS AND COMPOSITIONS COMPRISING REDUCED LEVEL OF HOST CELL PROTEINS” (Regeneron Pharmaceuticals, Inc., priority 2019, published 2021).
# Tests used:
# LPL = biological target: T1, LPL (Homo sapiens, UniProt P06858); assay: PS-20 remaining with LPL, with and without Lalistat-2; assay type: biochemical; conditions: 0.05% PS-20 and 10 μg/mL LPL; t=0, 8 days and 15 days
# T1 sequence (P06858 28-475): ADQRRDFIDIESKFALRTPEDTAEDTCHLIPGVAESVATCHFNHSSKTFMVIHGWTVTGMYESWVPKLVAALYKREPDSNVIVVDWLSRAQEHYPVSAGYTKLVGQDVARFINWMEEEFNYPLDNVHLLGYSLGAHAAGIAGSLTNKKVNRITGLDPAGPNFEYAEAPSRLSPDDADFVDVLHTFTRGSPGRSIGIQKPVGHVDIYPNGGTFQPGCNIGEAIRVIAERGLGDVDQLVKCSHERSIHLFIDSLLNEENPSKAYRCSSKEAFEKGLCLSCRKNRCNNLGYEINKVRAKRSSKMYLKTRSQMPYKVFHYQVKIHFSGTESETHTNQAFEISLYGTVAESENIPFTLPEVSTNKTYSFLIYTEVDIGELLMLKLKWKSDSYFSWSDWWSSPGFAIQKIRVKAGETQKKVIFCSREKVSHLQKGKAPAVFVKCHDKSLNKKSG
# Experimental: Thus, addition of Lalistat only causes inhibition of LAL […]. […] The incubated samples were analyzed at t=0, 8 days and 15 days. […] Therefore, if lalistat2 can inhibit lipase activity in mAbs completely, then it means the LPL detected from mAbs were not active or abundance are too low to degrade PS20. The PS20 degradation seen from recombinant LPL may either due to the only LPL in high concentration can degrade PS20, or due to unexpected impurities presented in the recombinant LPL.
# [1] = biological target: T2, lysosomal acid lipase (LAL) (Homo sapiens, UniProt P38571); conditions: cited from earlier work
# T2 sequence (P38571 77-399): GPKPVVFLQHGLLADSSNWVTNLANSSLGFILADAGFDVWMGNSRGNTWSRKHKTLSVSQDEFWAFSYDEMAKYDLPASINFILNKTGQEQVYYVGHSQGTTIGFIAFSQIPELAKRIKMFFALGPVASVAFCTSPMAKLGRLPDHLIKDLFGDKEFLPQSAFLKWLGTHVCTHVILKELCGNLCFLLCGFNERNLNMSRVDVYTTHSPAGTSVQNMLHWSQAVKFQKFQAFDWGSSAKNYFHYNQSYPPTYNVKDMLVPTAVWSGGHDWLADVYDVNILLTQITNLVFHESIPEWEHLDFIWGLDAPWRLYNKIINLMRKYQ
# [2] = biological target: T3, bovine milk lipoprotein lipase (Bos taurus, UniProt P11151); conditions: cited from earlier work
# T3 construct: host or cells: bovine milk
# T3 sequence (P11151 29-478): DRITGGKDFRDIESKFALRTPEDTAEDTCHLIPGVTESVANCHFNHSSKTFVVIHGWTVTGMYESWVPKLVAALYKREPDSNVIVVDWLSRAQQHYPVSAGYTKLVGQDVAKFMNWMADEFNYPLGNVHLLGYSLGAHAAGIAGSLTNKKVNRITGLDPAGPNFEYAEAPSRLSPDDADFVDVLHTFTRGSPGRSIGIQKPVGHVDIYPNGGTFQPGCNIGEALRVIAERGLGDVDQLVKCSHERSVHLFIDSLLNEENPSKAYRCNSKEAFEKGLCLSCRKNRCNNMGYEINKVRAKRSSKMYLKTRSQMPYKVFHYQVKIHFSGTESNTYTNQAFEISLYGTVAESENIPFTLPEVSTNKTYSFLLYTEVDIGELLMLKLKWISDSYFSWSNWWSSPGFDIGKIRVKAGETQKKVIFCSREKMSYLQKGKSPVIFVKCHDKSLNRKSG
# LAL [3] = biological target: T4, LAL (Cricetulus griseus, UniProt G3HQY6); assay: PS-20 remaining with LAL, with and without Lalistat-2; assay type: biochemical; set-up: made in house; host or cells: CHO cells; conditions: 0.05% PS-20 and 5 μg/mL LAL; t=0, 8 days and 15 days
# T4 sequence (G3HQY6 19-397): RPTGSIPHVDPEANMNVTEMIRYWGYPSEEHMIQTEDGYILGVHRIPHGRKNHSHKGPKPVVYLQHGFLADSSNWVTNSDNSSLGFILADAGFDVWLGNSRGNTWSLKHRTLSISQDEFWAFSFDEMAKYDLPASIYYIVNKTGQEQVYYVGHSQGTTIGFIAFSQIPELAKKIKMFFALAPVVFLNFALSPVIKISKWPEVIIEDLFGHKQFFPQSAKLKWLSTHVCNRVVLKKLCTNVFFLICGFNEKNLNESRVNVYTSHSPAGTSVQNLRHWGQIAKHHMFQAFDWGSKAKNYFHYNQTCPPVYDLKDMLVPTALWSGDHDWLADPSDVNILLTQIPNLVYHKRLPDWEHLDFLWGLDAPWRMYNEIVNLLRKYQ
# Experimental: The incubated samples were analyzed at t=0, 8 days and 15 days.
# LAL [4] = biological target: T4, LAL; assay: PS-20 remaining in mAb formulation with and without Lalistat-2; assay type: biochemical; set-up: endogenous in cells; host or cells: mAb production cells (CHO inferred); conditions: mAb-15 comprising 0.05% PS-20, 37° C., 15 days, 0.1 M Lalistat-2
# Experimental: mAb-15 comprising 0.05% PS-20 was incubated at 37° C. for 15 days in presence and absence of 0.1 M Lalistat-2. The incubated samples were analyzed at t=0, 8 days and […].
smiles,measurement,setting,value
O=C(Oc1nsnc1N1CCCCC1)N1CCCCC1 [Lalistat 2],inhibition of LPL's activity (PS-20 remaining),LPL,cannot inhibit LPL's activity
same,IC50,[1],152 nM
same,inhibition of bovine milk lipoprotein lipase,[2],does not exhibit inhibition
same,degradation of PS-20 in sample incubated with Lalistat-2,LAL [3],almost no degradation of PS-20
same,degradation of PS-20 in mAb formulation incubated with Lalistat-2,LAL [4],almost no degradation of PS-20
